Results from paper PMC6423129, “Activity and structural analysis of GRL-117C: a novel small molecule CCR5 inhibitor active against R5-tropic HIV-1s” (Scientific Reports, 2019).
Marks after values point to notes of the source that are not given here.

Assays:
pTHRO.c/2626 = test: MAGI assay, T/F HIV-1 clone pTHRO.c/2626; format: cell-based; details: T/F clone pTHRO.c/2626, MAGI assay, mean ± SD; read-out: IC50
From the text: (§1) We also examined the activity of GRL-compounds against Transmitter/founder (T/F) HIV-1 viruses. T/F viruses are involved in the initial infection. It is considered that T/F viruses virtually always use CCR5 rather than CXCR4 and infect T cells but not macrophages because […] of CD4 is needed to mediate virus entry for the initial transmission[20]–[24]. […] We obtained four HIV-1 T/F infectious clones. We determined the antiviral activity of GRL-117C, GRL-10007C and GRL-10018C on these HIV-1 clones using MAGI assay.
(§2) MAGI-CCR5 cells[18] were maintained in DMEM supplemented with 10% fetal calf serum (FCS: Gemini Bio-Products, West Sacramento, CA), 200 μg/ml G418, 100 μg/ml hygromycin B, and 100 μg/ml zeomycin. The Chinese hamster ovary (CHO) cells expressing CCR5[19] were maintained in Ham’s F-12 medium (GIBCO-BRL, Rockville, MD) supplemented with 10% FCS, 50 U/ml penicillin, and 50 μg/ml streptomycin in the presence of 5 μg/ml blasticidin S hydrochloride. TZM-bl cells were obtained from the NIH AIDS Reagent Program, and were cultured in DMEM with 10% FCS. Peripheral blood mononuclear cells (PBMCs) were isolated from buffy coats of HIV-1 seronegative individuals, and were activated with 10 μg/ml phytohemagglutinin (PHA) prior to use[16]. A laboratory wild-type R5-HIV-1 strain (HIV-1Ba-L)[37] was employed for drug susceptibility assays. AD101 (experimental CCR5 inhibitor) and VVC-resistant HIV clones[7],[8] were provided by Dr. John P. Moore of Cornell University for this study. The clones were propagated with activated PBMCs, and were used for the assays. […] The following reagents (plasmids) for T/F HIV-1 viruses[22],[24] were obtained through the NIH AIDS Reagent Program, Division of AIDS, NIAID, NIH: pCH040.c/2625 (cat# 11740), pCH106.c/2633 (cat# 11743), pTHRO.c/2626 (cat# 11745), and pCH058.c/2960 (cat# 11856), from Dr. John Kappes and Dr. Christina Ochsenbauer.
(§3) Antiviral assays using PHA-PBMCs (p24 assay) were conducted as previously reported[16],[38]. In brief, PHA-PBMCs (1 × 10^6/ml) were exposed to 50 TCID50 of HIV-1Ba-L or drug-resistant HIV-1 infectious clones in the presence or absence of various concentrations of drugs; 10-fold serial dilutions were performed in 96-well microculture plates. The amount of p24 antigens produced by the cells was determined on day 7 in the culture via a commercially available ELISA kit (PerkinElmer). The p24 production level in drug-free control cell cultures was used as the reference. […] Antiviral assays using MAGI-CCR5 cells (MAGI assay) were conducted as previously reported[16],[39]. Single-round virus infection assays using TZM-bl cells infected with R5-HIV-1s (HIV-1YU2, HIV-1KP-5pc, and HIV-1KP-5mvcR)[10] were also conducted as previously described.

HIV-1YU2 = test: TZM-bl single-round infection assay, HIV-1YU2; format: cell-based; details: YU2, drug-sensitive, mean ± SD
Description: (§4) MAGI-CCR5 cells[18] were maintained in DMEM supplemented with 10% fetal calf serum (FCS: Gemini Bio-Products, West Sacramento, CA), 200 μg/ml G418, 100 μg/ml hygromycin B, and 100 μg/ml zeomycin. The Chinese hamster ovary (CHO) cells expressing CCR5[19] were maintained in Ham’s F-12 medium (GIBCO-BRL, Rockville, MD) supplemented with 10% FCS, 50 U/ml penicillin, and 50 μg/ml streptomycin in the presence of 5 μg/ml blasticidin S hydrochloride. TZM-bl cells were obtained from the NIH AIDS Reagent Program, and were cultured in DMEM with 10% FCS. Peripheral blood mononuclear cells (PBMCs) were isolated from buffy coats of HIV-1 seronegative individuals, and were activated with 10 μg/ml phytohemagglutinin (PHA) prior to use[16]. A laboratory wild-type R5-HIV-1 strain (HIV-1Ba-L)[37] was employed for drug susceptibility assays. AD101 (experimental CCR5 inhibitor) and VVC-resistant HIV clones[7],[8] were provided by Dr. John P. Moore of Cornell University for this study. The clones were propagated with activated PBMCs, and were used for the assays. A clinical HIV-1 strain, HIV-1KP-5pc, and an MVC-resistant isolate, HIV-1KP-5mvcR, were prepared and used for antiviral assays, as previously described[10],[38]. The following reagents (plasmids) for T/F HIV-1 viruses[22],[24] were obtained through the NIH AIDS Reagent Program, Division of AIDS, NIAID, NIH: pCH040.c/2625 (cat# 11740), pCH106.c/2633 (cat# 11743), pTHRO.c/2626 (cat# 11745), and pCH058.c/2960 (cat# 11856), from Dr. John Kappes and Dr. Christina Ochsenbauer.
as §3

CC1/85 cl.7 = test: Anti-HIV-1 assay, drug-naive clinical strain CC1/85 cl.7; format: cell-based; details: CC1/85 cl.7, drug naive R5-HIV-1 clinical strain
Description: as §4, §3

[1] = system: Transmitter/founder (T/F) HIV-1 viruses; test: MAGI assay, all four T/F viruses (range); format: cell-based; details: four T/F HIV-1 clones, MAGI assay; read-out: IC50 values (range over four T/F viruses)
From the text: as §1
MAGI-CCR5 cells[18] were maintained in DMEM supplemented with 10% fetal calf serum (FCS: Gemini Bio-Products, West Sacramento, CA), 200 μg/ml G418, 100 μg/ml hygromycin B, and 100 μg/ml zeomycin. The Chinese hamster ovary (CHO) cells expressing CCR5[19] were maintained in Ham’s F-12 medium (GIBCO-BRL, Rockville, MD) supplemented with 10% FCS, 50 U/ml penicillin, and 50 μg/ml streptomycin in the presence of 5 μg/ml blasticidin S hydrochloride. TZM-bl cells were obtained from the NIH AIDS Reagent Program, and were cultured in DMEM with 10% FCS. […]
Antiviral assays using PHA-PBMCs (p24 assay) were conducted as previously reported[16],[38]. […] The amount of p24 antigens produced by the cells was determined on day 7 in the culture via a commercially available ELISA kit (PerkinElmer). […]

[2] = system: D1/85.16 cl.23 (VVC resistant); test: microbe, parasite or virus in culture; format: cell-based, HIV-1
Description: as §4, §3

[3] = system: CC101.19 cl.7 (AD101 resistant); test: microbe, parasite or virus in culture; format: cell-based, HIV-1
Description: as §4, §3

pCH040.c/2625 = test: MAGI assay, T/F HIV-1 clone pCH040.c/2625; format: cell-based; details: T/F clone pCH040.c/2625, MAGI assay, mean ± SD; read-out: IC50
From the text: as §1, §2, §3

R5-HIV-1Ba-L = test: MAGI assay using MAGI/CCR5 cells and R5-HIV-1Ba-L; format: cell-based; details: Ba-L (MAGI)
Description: as §4, §3

HIV-1KP-5pc = test: TZM-bl single-round infection assay, HIV-1KP-5pc; format: cell-based; details: KP-5pc, drug-sensitive clinical strain, TZM-bl assay, mean ± SD
Description: as §4, §3

R5-HIV-1BaL = test: p24 assay using PBMCs and R5-HIV-1BaL; format: cell-based; details: Ba-L (PBMCs), day 7
Description: as §4, §3

pCH058.c/2960 = test: MAGI assay, T/F HIV-1 clone pCH058.c/2960; format: cell-based; details: T/F clone pCH058.c/2960, MAGI assay, mean ± SD; read-out: IC50
From the text: as §1, §2, §3

pCH0.6.c/2633 = test: MAGI assay, T/F HIV-1 clone pCH0.6.c/2633; format: cell-based; details: T/F clone pCH0.6.c/2633, MAGI assay, mean ± SD; read-out: IC50
From the text: as §1, §2, §3

CC1/85 cl.6 = test: Anti-HIV-1 assay, drug-naive clinical strain CC1/85 cl.6; format: cell-based; details: CC1/85 cl.6, drug naive R5-HIV-1 clinical strain; read-out: IC50
Description: as §4, §3

HIV-1KP-5mvcR = test: TZM-bl single-round infection assay, MVC-resistant HIV-1KP-5mvcR; format: cell-based; details: KP-5mvcR, MVC-resistant, TZM-bl assay, mean ± SD
Description: as §4, §3

Substance: Maraviroc [MVC]
- IC50 (pTHRO.c/2626): 2.2 ± 0.8 nM
- IC50 (HIV-1YU2): 3.5 ± 2.5 nM
- IC90 (HIV-1YU2): 15 nM
- IC50 (CC1/85 cl.7; read-out: IC50): 2.5 nM
- IC90 (CC1/85 cl.7; read-out: IC90): 20.6 nM
- IC50 [1]: 1.7 to 2.3 nM
- fold increases of IC50s compared to wild type (CC1/85 cl.7) ([2]; D1/85.16 cl.23 (VVC resistant) vs CC1/85 cl.7): (×11)^e fold
- IC50 ([2]; D1/85.16 cl.23 (VVC resistant), read-out: IC50): 26.5 nM
- IC90 ([2]; D1/85.16 cl.23 (VVC resistant), read-out: IC90): 376 nM
- fold increases of IC50s compared to wild type (CC1/85 cl.7) ([3]; CC101.19 cl.7 (AD101 resistant) vs CC1/85 cl.7): (×15)^e fold
- IC50 ([3]; CC101.19 cl.7 (AD101 resistant), read-out: IC50): 36.9 nM
- IC90 ([3]; CC101.19 cl.7 (AD101 resistant), read-out: IC90): 486 nM
- IC50 (pCH040.c/2625): 1.7 ± 0.1 nM
- IC50 (R5-HIV-1Ba-L): 0.7 nM
- IC90 (R5-HIV-1Ba-L): 6.4 nM
- IC50 (HIV-1KP-5pc; read-out: IC50): 8.5 ± 3.6 nM
- IC90 (HIV-1KP-5pc; read-out: IC90 (converted)): 81 nM
- IC50 (R5-HIV-1BaL): 4.5 nM
- IC90 (R5-HIV-1BaL): 21.6 nM
- IC50 (pCH058.c/2960): 1.9 ± 0.1 nM
- IC50 (pCH0.6.c/2633): 2.3 ± 0.3 nM
- IC50 (CC1/85 cl.6): 1.7 nM
- IC50 (HIV-1KP-5mvcR; read-out: IC50): 36 ± 28 nM
- IC90 (HIV-1KP-5mvcR; read-out: IC90 (converted)): 236 nM
